The text below walks through data of patent US9073911B2, “Pyrazole derivatives” (HOFFMANN-LA ROCHE INC., priority 2011, dated 2015).

Each structure is given as a SMILES string. Where a name gives a salt, the structure may show the parent alone.

One assay has as its target mouse TAAR1 (Mus musculus (Mouse), UniProt Q923Y8). The assay can be described thus: Radioligand binding assay on mouse TAAR1. The conditions noted are these: membranes of HEK-293 cells stably expressing mouse TAAR1; first value of cell mouse/rat. The procedure:
(§1) Construction of TAAR Expression Plasmids and Stably Transfected Cell Lines
(§2) For the construction of expression plasmids the coding sequences of human, rat and mouse TAAR 1 were amplified from genomic DNA essentially as described by Lindemann et al.. The Expand High Fidelity PCR System (Roche Diagnostics) was used with 1.5 mM Mg^2+ and purified PCR products were cloned into pCR2.1-TOPO cloning vector (Invitrogen) following the instructions of the manufacturer. PCR products were subcloned into the pIRESneo2 vector (BD Clontech, Palo Alto, Calif.), and expression vectors were sequence verified before introduction in cell lines.
(§3) HEK293 cells (ATCC # CRL-1573) were cultured essentially as described by Lindemann et al. (2005). For the generation of stably transfected cell lines HEK293 cells were transfected with the pIRESneo2 expression plasmids containing the TAAR coding sequences (described above) with Lipofectamine 2000 (Invitrogen) according to the instructions of the manufacturer, and 24 hrs post transfection the culture medium was supplemented with 1 mg/ml G418 (Sigma, Buchs, Switzerland). After a culture period of about 10 d clones were isolated, expanded and tested for responsiveness to trace amines (all compounds purchased from Sigma) with the cAMP Biotrak Enzyme immunoassay (EIA) System (Amersham) following the non-acetylation EIA procedure provided by the manufacturer.
Radioligand Binding Assay on Mouse TAAR1
(§4) Membrane Preparation and Radioligand Binding.
HEK-293 cells stably expressing mouse TAAR1 were maintained at 37° C. and 5% CO2 in DMEM high glucose medium, containing fetal calf serum (10%, heat inactivated for 30 min at 56° C.), penicillin/streptomycin (1%), and 375 μg/ml geneticin (Gibco). Cells were released from culture flasks using trypsin/EDTA, harvested, washed twice with ice-cold PBS (without Ca^2+ and Mg^2+), pelleted at 1,000 rpm for 5 min at 4° C., frozen and stored at −80° C. Frozen pellets were suspended in 20 ml HEPES-NaOH (20 mM, pH 7.4) containing 10 mM EDTA and homogenized with a Polytron (PT 6000, Kinematica) at 14,000 rpm for 20 s. The homogenate was centrifuged at 48,000×g for 30 min at 4° C. Subsequently, the supernatant was removed and discarded, and the pellet resuspended in 20 ml HEPES-NaOH (20 mM, pH 7.4) containing 0.1 mM EDTA using the Polytron (20 s at 14,000 rpm). This procedure was repeated and the final pellet resuspended in HEPES-NaOH containing 0.1 mM EDTA and homogenized using the Polytron. Typically, aliquots of 2 ml membrane portions were stored at −80° C. With each new membrane batch the dissociation constant (Kd) was determined via a saturation curve. The TAAR1 radioligand ^3[H]—(S)-4-[(ethyl-phenyl-amino)-methyl]-4,5-dihydro-oxazol-2-ylamine (described in WO 2008/098857) was used at a concentration equal to the calculated Kd value, that was usually around 0.7 nM, resulting in the binding of approximately 0.5% of the radioligand and a specific binding representing approximately 70% of the total binding. Nonspecific binding was defined as the amount of ^3[H]—(S)-4-[(ethyl-phenyl-amino)-methyl]-4,5-dihydro-oxazol-2-ylamine bound in the presence of 10 μM unlabeled ligand. All compounds were tested at a broad range of concentrations ([…]) in duplicates. […] The 96 deep well plates were incubated for 1 hr at 4° C. Incubations were terminated by rapid filtration through Unifilter-96 plates (Packard Instrument Company) and glass filters GF/C (Perkin Elmer) presoaked for 1 hr in polyethylenimine (0.3%) and washed 3 times with 1 ml of cold binding buffer. After addition of 45 μl of Microscint 40 (PerkinElmer) the Unifilter-96 plate was sealed and after 1 hr the radioactivity counted using a TopCount Microplate Scintillation Counter (Packard Instrument Company).

Another assay concerns the target rat TAAR1 (Rattus norvegicus (Rat), UniProt Q923Y9). The assay can be described thus: Radioligand binding assay on rat TAAR1. As to conditions: membranes of HEK-293 cells stably expressing rat TAAR1; second value of cell mouse/rat. The protocol: as §1, §2, §3
Radioligand Binding Assay on rat TAAR1
as §4
HEK-293 cells stably expressing rat TAAR1 were maintained at 37° C. and 5% CO2 in DMEM high glucose medium, containing fetal calf serum (10%, heat inactivated for 30 min at 56° C.), penicillin/streptomycin (1%), and 375 μg/ml geneticin (Gibco). Cells were released from culture flasks using trypsin/EDTA, harvested, washed twice with ice-cold PBS (without Ca^2+ and Mg^2+), pelleted at 1,000 rpm for 5 min at 4° C., frozen and stored at −80° C. Frozen pellets were suspended in 20 ml HEPES-NaOH (20 mM, pH 7.4) containing 10 mM EDTA and homogenized with a Polytron (PT 6000, Kinematica) at 14,000 rpm for 20 s. The homogenate was centrifuged at 48,000×g for 30 min at 4° C. Subsequently, the supernatant was removed and discarded, and the pellet resuspended in 20 ml HEPES-NaOH (20 mM, pH 7.4) containing 0.1 mM EDTA using the Polytron (20 s at 14,000 rpm). This procedure was repeated and the final pellet resuspended in HEPES-NaOH containing 0.1 mM EDTA and homogenized using the Polytron. Typically, aliquots of 2 ml membrane portions were stored at −80° C. With each new membrane batch the dissociation constant (Kd) was determined via a saturation curve.
Nonspecific binding was defined as the amount of ^3-[H]-(S)-4-[(ethyl-phenyl-amino)-methyl]-4,5-dihydro-oxazol-2-ylamine bound in the presence of 10 μM unlabeled ligand. All compounds were tested at a broad range of concentrations (10 pM to 10 μM) in duplicates. […] The 96 deep well plates were incubated for 1 hr at 4° C. Incubations were terminated by rapid filtration through Unifilter-96 plates (Packard Instrument Company) and glass filters GF/C (Perkin Elmer) presoaked for 1 hr in polyethylenimine (0.3%) and washed 3 times with 1 ml of cold binding buffer. After addition of 45 μl of Microscint 40 (PerkinElmer) the Unifilter-96 plate was sealed and after 1 hr the ratioactivity counted using a TopCount Microplate Scintillation Counter (Packard Instrument Company).

rat TAAR1, sequence (Q923Y9 whole entry): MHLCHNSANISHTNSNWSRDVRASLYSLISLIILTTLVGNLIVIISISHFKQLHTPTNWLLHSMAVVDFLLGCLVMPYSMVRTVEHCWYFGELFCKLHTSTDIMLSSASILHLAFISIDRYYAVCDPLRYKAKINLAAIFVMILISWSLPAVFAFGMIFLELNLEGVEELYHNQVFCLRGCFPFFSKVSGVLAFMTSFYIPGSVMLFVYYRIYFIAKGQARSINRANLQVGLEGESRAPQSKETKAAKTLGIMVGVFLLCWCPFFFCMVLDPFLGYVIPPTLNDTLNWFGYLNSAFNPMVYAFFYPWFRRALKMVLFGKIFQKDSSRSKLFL
mouse TAAR1, sequence (Q923Y8 whole entry): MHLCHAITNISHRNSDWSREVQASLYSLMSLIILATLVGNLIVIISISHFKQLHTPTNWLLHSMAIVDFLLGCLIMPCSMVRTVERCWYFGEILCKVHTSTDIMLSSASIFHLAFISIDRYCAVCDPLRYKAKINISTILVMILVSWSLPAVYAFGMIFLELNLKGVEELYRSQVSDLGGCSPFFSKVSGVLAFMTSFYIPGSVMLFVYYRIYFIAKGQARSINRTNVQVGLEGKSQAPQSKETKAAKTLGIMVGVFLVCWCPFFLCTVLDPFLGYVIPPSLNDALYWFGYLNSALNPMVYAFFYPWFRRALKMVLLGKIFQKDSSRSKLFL

The term Ki denotes the dissociation constant of the complex between target and ligand, obtained from inhibition or displacement. High values mean weaker binding, low ones tighter binding. On to `O=C(Nc1ccc([C@H]2CNCCO2)cc1)c1ccn(-c2ccc(C(F)(F)F)cn2)n1` [Example 33, (S)—N-(4-(Morpholin-2-yl)phenyl)-1-(5-(trifluoromethyl)pyridin-2-yl)-1H-pyrazole-3-carboxamide hydrochloride], for which the Ki on mouse TAAR1 came to 0.0028 µM; on rat TAAR1, 0.0016 µM.
As for `O=C(Nc1ccc([C@H]2CNCCO2)cc1)c1cc(-c2ccccc2F)n[nH]1` [Example 8, (S)-3-(2-fluorophenyl)-N-(4-(morpholin-2-yl)phenyl)-1H-pyrazole-5-carboxamide hydrochloride], the Ki turned out to be 0.0009 µM on mouse TAAR1 and 0.0073 µM at rat TAAR1.
On the same counts, the results for `CCn1nc(-c2ccc(C#N)cc2)cc1C(=O)Nc1ccc([C@H]2CNCCO2)cc1` [Example 26, (S)-3-(4-cyanophenyl)-1-ethyl-N-(4-(morpholin-2-yl)phenyl)-1H-pyrazole-5-carboxamide hydrochloride] are 0.0734 µM and 0.0316 µM.
In the case of `O=C(Nc1ccc([C@H]2CNCCO2)cc1)c1ccn(-c2cncc(Cl)n2)n1` [Example 48, (S)-1-(6-Chloropyrazin-2-yl)-N-(4-(morpholin-2-yl)phenyl)-1H-pyrazole-3-carboxamide hydrochloride], the Ki was determined as 0.0086 µM on mouse TAAR1 and 0.0118 µM on rat TAAR1.
Turning to `Cn1nc(-c2ccc(C#N)cc2)cc1C(=O)Nc1ccc([C@H]2CNCCO2)cc1` [Example 21, (S)-3-(4-cyanophenyl)-1-methyl-N-(4-(morpholin-2-yl)phenyl)-1H-pyrazole-5-carboxamide hydrochloride], the Ki came out at 0.0053 µM on mouse TAAR1 and 0.0055 µM on rat TAAR1.
On the same counts, the results for `O=C(Nc1ccc([C@H]2CNCCO2)cc1)c1ccn(-c2ccc(Cl)cn2)n1` [Example 32, (S)-1-(5-Chloropyridin-2-yl)-N-(4-(morpholin-2-yl)phenyl)-1H-pyrazole-3-carboxamide hydrochloride] are 0.0007 µM and 0.0011 µM.
In the same order, the values of `N#Cc1ccc(-n2ccc(C(=O)Nc3ccc([C@H]4CNCCO4)cc3)n2)cc1` [Example 34, (S)-1-(4-Cyanophenyl)-N-(4-(morpholin-2-yl)phenyl)-1H-pyrazole-3-carboxamide hydrochloride] are 0.0037 µM and 0.0092 µM.
On the same counts, the results for `O=C(Nc1ccc([C@H]2CNCCO2)cc1)c1cc(-c2cccc(OC(F)F)c2)n[nH]1` [Example 40, (S)-3-(3-(Difluoromethoxy)phenyl)-N-(4-(morpholin-2-yl)phenyl)-1H-pyrazole-5-carboxamide hydrochloride] are 0.0005 µM and 0.0013 µM.
Take `Cn1nc(-c2cccc(OC(F)F)c2)cc1C(=O)Nc1ccc([C@H]2CNCCO2)cc1` [Example 44, (S)-3-(3-(Difluoromethoxy)phenyl)-1-methyl-N-(4-(morpholin-2-yl)phenyl)-1H-pyrazole-5-carboxamide hydrochloride]: the results for the Ki on mouse TAAR1 and on rat TAAR1 were 0.0663 µM and 0.0262 µM, respectively.
As to `Cc1c(C(=O)Nc2ccc([C@H]3CNCCO3)cc2)n[nH]c1-c1cccc(C#N)c1` [Example 27, (S)-5-(3-cyanophenyl)-4-methyl-N-(4-(morpholin-2-yl)phenyl)-1H-pyrazole-3-carboxamide hydrochloride], the Ki at mouse TAAR1 was 0.0021 µM; at rat TAAR1, 0.0135 µM.
On the same counts, the results for `Cn1nc(-c2ccccc2)cc1C(=O)Nc1ccc([C@H]2CNCCO2)cc1` [Example 5, (S)-1-methyl-N-(4-(morpholin-2-yl)phenyl)-3-phenyl-1H-pyrazole-5-carboxamide hydrochloride] are 0.0072 µM and 0.0045 µM.
In the same order, the values of `O=C(Nc1ccc([C@H]2CNCCO2)cc1)c1ccn(-c2cncc(C(F)(F)F)n2)n1` [Example 52, (S)—N-(4-(Morpholin-2-yl)phenyl)-1-(6-(trifluoromethyl)pyrazin-2-yl)-1H-pyrazole-3-carboxamide hydrochloride] are 0.0084 µM and 0.0074 µM.
On the same counts, the results for `O=C(Nc1ccc([C@H]2CNCCO2)cc1)c1ccn(-c2ncc(C(F)(F)F)cn2)n1` [Example 47, (S)—N-(4-(Morpholin-2-yl)phenyl)-1-(5-(trifluoromethyl)pyrimidin-2-yl)-1H-pyrazole-3-carboxamide hydrochloride] are 0.0198 µM and 0.0196 µM.
Consider `N#Cc1cccc(-c2cc(C(=O)Nc3ccc(C4CCNC4)cc3)[nH]n2)c1` (racemic) [Example 38, (rac) 3-(3-Cyanophenyl)-N-(4-(pyrrolidin-3-yl)phenyl)-1H-pyrazole-5-carboxamide hydrochloride], for which the Ki worked out at 0.0021 µM on mouse TAAR1 and 0.0042 µM at rat TAAR1.
On the same counts, the results for `N#Cc1cc(-c2cc(C(=O)Nc3ccc([C@H]4CNCCO4)cc3)[nH]n2)ccc1F` [Example 39, (S)-5-(3-Cyano-4-fluorophenyl)-N-(4-(morpholin-2-yl)phenyl)-1H-pyrazole-3-carboxamide hydrochloride] are 0.0014 µM and 0.003 µM.
In the same order, the values of `O=C(Nc1ccc([C@H]2CNCCO2)cc1)c1cc(-c2ccccc2)[nH]n1` [Example 1, (S)—N-(4-(morpholin-2-yl)phenyl)-5-phenyl-1H-pyrazole-3-carboxamide hydrochloride] are 0.0007 µM and 0.0043 µM.
